Data taken from patent publication US7365154B2, “Peptides antagonistic to an anti-angiogenic antibody and uses therefor” (Centocor, Inc., priority 2003, dated 2008).
“Also recorded” adds a separate entry of the source.

How the values were obtained:
[1] = test system: A375.S2 cells (human melanoma cells); assay: Flow cytometry of CNTO95 binding to surface integrins of A375.S2 cells with or without peptides; assay type: cell-based; conditions: CNTO95 only 10 ug/ml, no peptide
Procedure: For the detection of surface integrins, A375.S2 cells (human melanoma cells) were harvested, rinsed, suspended in unsupplemented RPMI media. The antibody, CNTO95, was incubated at a final concentration of 10 ug/ml with or without peptides at the concentrations given in Table 1 for 1 hr. Then, the cell solution was added and incubated for an additonal 60 minutes on ice followed by addition of PE-labeled goat anti-human antibody IgG-Fc (10 ug/ml). Absence of primary antibody or substitution of primary antibody with isotype matched antibody served as negative controls. Cells were immediately analyzed with a FACS Scan II flow cytometer (Becton Dickinson, Mountain View, Calif.). […] For simplicity, the mean channel fluorescence for each peak was used as the relative staining value (Table 5).

CEN2319 coated plates = assay: ELISA of other antibodies on CEN2319 coated plates; assay type: binding; conditions: negative control antibodies
Procedure: (§1) To verify the binding activity of synthetic peptides to CNTO95 mAb, ELISAs were performed using peptide-coated plates. PRO-Bind ELISA plates (Falcon) were coated with 100 μl (100 μg/ml) of either CEN 2319, CEN2322 or PBS buffer. Peptide-charged ELISA plates were incubated with 100 μl of various concentrations of CNTO95 mAb for 2 hours at 37° C., and the wells then were washed with PBS plus 0.5% Tween 20 (PBST). Binding was detected with a 1:5,000 dilution of peroxidase-conjugated goat anti-human IgG, Fc gamma fragment antibody (Jackson) and color development with 3,3′,5,5′-tetramethyl-benzidine dihydrochloride (TMB). The reaction was detected by reading the absorbance at 450 nm. PBS-coated wells were used as background control. […] Another set of negative control was performed using mAb CNTO1275 (FIG. 4C). The binding signal is negative.

[2] = test system: M21, human melanoma cells; assay: Cell adhesion assay on vitronectin coated plates, CNTO95 with peptides; assay type: cell-based; conditions: FIG. 7
Procedure: For cell adhesion assays, Microtiter plates (Linbro-Titertek, ICN Biomedicals, Inc) were coated at 4° C. overnight with vitronectin (1 mg/ml). Immediately before use plates were rinsed with PBS and blocked for 1 hour with 1% BSA/PBS (pH 7.4). Adherent cells (M21, human melanoma cells) were labeled with Calcein AM fluorescent dye (Molecular Probes, Eugene, Oreg.) according to the manufacturer's instructions, harvested, washed twice, and suspended in 0.1% BSA in DMEM medium. Various concentration of Antibodies were incubated with peptides for 1 hrs. Cell density was adjusted to 5×10^5/ml and they were incubated with antibody and peptide solution for 15 min at 37° C. The cell-antibody mixture was added to wells (100 μl per well) and incubated for 1 h at 37° C. Plates were rinsed twice with PBS to remove unbound cells and adhesion was measured in a fluorescence plate reader (Fluoroskan) at 485-538 nm. Cell adhesion to BSA-coated wells served as a negative control. Isotype matched antibodies served as a negative control.

CNTO95 mAb = assay: ELISA for CNTO95 binding to synthetic peptide-coated plates; design: species or system human; conditions: plates coated with 100 μg/ml peptide, absorbance at 450 nm
Procedure: as §1

CNTO95 [3] = assay: Positional substitution analysis: peptides spotted on nitrocellulose membrane probed with CNTO95; assay type: binding, human; design: key: +++: very strong; ++: strong; +: equivalent; ±: weak; Blank: negative; conditions: CEN2319 with one position substituted, + = equivalent
Procedure: In order to further understand the contribution of each amino acid residue in the binding, systematic substitution at each position were made and tested. The binding analysis was carried out by spotting the various peptides on a nitrocellulose membrane and probing with CNTO95 followed by HRP-conjugated goat-anti-human Fc antibody and color developed using a peroxidase substrate.

[4] = test system: CNTO95 mAb binding to integrin αVβ5; assay: Competitive ELISA on plates coated with integrin αVβ5; design: species or system human; conditions: peptide 0 to 200 μg/ml
Procedure: (§2) Competitive ELISA on microtiter plates coated with integrins αVβ3 or αVβ5 were carried out to evaluate the binding specificity for CEN2319 peptide to CNTO95 mAb. 100 ul of 5 μg/ml either αVβ3 or αVβ5 (Chemicon, Temacula, Calif.) was coated on the ELISA plates at […] over night. Then, 100 μl of 2 μg/ml CNTO95 was pre-incubated at room temperature for 30 minutes with various concentration peptides (100 μl), ranging from 0 to 200 μg/ml. The peptide-antibody mixtures were then added to the integrin-coated microwells. Following incubation at 37° C. for 2 hours, the plates were washed thoroughly, and bound CNTO95 was detected using peroxidase-conjugated goat anti-human IgG, Fc gamma fragment antibody (1:5,000 dilution), followed by substrate addition as above.

[5] = test system: CNTO95 mAb binding to integrin αVβ3; assay: Competitive ELISA on plates coated with integrin αVβ3; design: species or system human; conditions: peptide 0 to 200 μg/ml
Procedure: as §2

CNTO95 [6] = assay: Titration microcalorimetry of synthetic peptides with CNTO95; assay type: binding, human
Procedure: Titration microcalorimetry is a technique used to measure equilibrium binding affinity by monitoring the enthalpy of binding as a function of titrant added to second molecule at fixed temperature. To determine binding affinities and stoichiometries of synthetic peptides for CNTO95, titration calorimetry experiments were carried out with a Microcal (Amherst, Mass.) MCS isothermal titration calorimeter. Protein concentrations were measured by absorbance at 280 nm. Aliquots of peptide were titrated into a fixed concentration of CNTO95 at 3 μM in Dulbecco's PBS. Heats of binding are monitored with each injection. Peptides were added until the observed heats approach the heats of diluted peptides into buffer. Calorimetry data were analyzed with Microcal ORIGIN software according to a single-site binding model in each case (Wiseman et al., Anal. Biochem. 179: 131-137, 1989). The model includes an equilibrium binding constant (Kd), a molar binding enthalpy change (ΔH) and a molar binding ratio for the binding reaction at 25° C. Table 3 gives the calculated CNTO95 binding properties of synthetic peptides from titration calorimetry data.

CNTO95: fully human IgG1, kappa monoclonal antibody recognizing integrins αVβ3 and αVβ5
Mean Channel Fluorescence [1]: 89.7

CNTO1275: another human mAb to an unrelated antigen
antibody binding to CEN2319 coated plates (CEN2319 coated plates): negative

DFRSWWDLEE (Phage Library Derived Sequence) [CEN2553, alternate antagonist peptide, 10-mer]
effect on the inhibition of cellular adhesion by CNTO95 to vitronectin coated plates [2]: indistinguishable from the peptide CEN2319

DFRSWWDLSGYR [CEN2319]
CNTO95 mAb binding to peptide-coated plates (CNTO95 mAb): recognized specifically; also recorded: specific binding | Intensity (relative density of color at each spot) (CNTO95 [3]; listed as D1D): + | Intensity (relative density of color at each spot) (CNTO95 [3]; listed as D7D): ++ | Intensity (relative density of color at each spot) (CNTO95 [3]; listed as F2F): + | Intensity (relative density of color at each spot) (CNTO95 [3]; listed as G10G): + | Intensity (relative density of color at each spot) (CNTO95 [3]; listed as L8L): ++ | Intensity (relative density of color at each spot) (CNTO95 [3]; listed as R3R): + | Intensity (relative density of color at each spot) (CNTO95 [3]; listed as R12R): + | Intensity (relative density of color at each spot) (CNTO95 [3]; listed as S4S): + | Intensity (relative density of color at each spot) (CNTO95 [3]; listed as S9S): + | Intensity (relative density of color at each spot) (CNTO95 [3]; listed as W5W): ++ | Intensity (relative density of color at each spot) (CNTO95 [3]; listed as W6W): + | Intensity (relative density of color at each spot) (CNTO95 [3]; listed as Y11Y): + | competition with CNTO95 binding to αVβ5 (in words) [4]: significant inhibition; also recorded: inhibits | competition with CNTO95 binding to αVβ3 (in words) [5]: inhibits

DYRTA ADTTGLQ (DYRTAADTTGLQ; PEPTIDE (1)..(12) Residues 564 to 575 inclusive of human alpha V integrin subunit protein; listed as Homo sapiens) [CEN2322]
CNTO95 mAb binding to peptide-coated plates (CNTO95 mAb): did not bind | competition with CNTO95 binding to αVβ5 (in words) [4]: did not compete | Comments (binding to CNTO95 by calorimetry) (CNTO95 [6]): no evidence for CEN2322 peptide binding to CNTO95 mAb | competition with CNTO95 binding to αVβ3 (in words) [5]: did not compete

SPLFXPW [flanked by cysteine residues which form a disulfide bond]
CNTO95 mAb binding to peptide-coated plates (CNTO95 mAb): no specific binding was detected
